In patent publication US20250223259A1, “PROTEASE INHIBITORS FOR TREATING OR PREVENTING CORONAVIRUS INFECTION” (Merck Sharp & Dohme LLC, priority 2022, published 2025):

Target: SARS2 coronavirus 3CL protease (Severe acute respiratory syndrome coronavirus 2 (2019-nCoV) (SARS-CoV-2), UniProt P0DTD1)
Experiment: SARS2 Coronavirus 3CL Protease Assay (FRET)
Type: biochemical
Details: SARS2 3CLPro FRET assay; 5 nM enzyme, 30 min pre-incubation with compound, 15 uM peptide substrate, 4 h room temperature

Compound | IC50
CNC(=O)C(=O)[C@H](CCC(C)(F)F)NC(=O)[C@@H]1[C@@H]2CC[C@@H](C2)CN1C(=O)[C@@H](NC(=O)OC)C(C)(C)C [Example 89, methyl ((S)-1-((1R,2S,5S)-2-(((S)-6,6-difluoro-1-(methylamino)-1,2-dioxoheptan-3-yl)carbamoyl)-3-azabicyclo[3.2.1]octan-3-yl)-3,3-dimethyl-1-oxobutan-2-yl)carbamate] | 13 nM
COC(=O)N[C@H](C(=O)N1C[C@H]2[C@@H]([C@H]1C(=O)N[C@@H](CCC(C)(F)F)C(=O)C(=O)NC1CC1)C21CCCC1)C(C)(C)C [Example 38, Methyl ((S)-1-((1R,2S,5S)-2-(((S)-1-(cyclopropylamino)-6,6-difluoro-1,2-dioxoheptan-3-yl)carbamoyl)-3-azaspiro[bicyclo[3.1.0]hexane-6,1′-cyclopentan]-3-yl)-3,3-dimethyl-1-oxobutan-2-yl)carbamate] | 9.7 nM
COC(=O)N[C@@H](C)C(=O)N1CC2(CCCCC2)C[C@H]1C(=O)N[C@@H](CCC(C)(F)F)C(=O)C(=O)NC1CC1 [Example 14, Methyl ((S)-1-((S)-3-(((S)-1-(cyclopropylamino)-6,6-difluoro-1,2-dioxoheptan-3-yl)carbamoyl)-2-azaspiro[4.5]decan-2-yl)-1-oxopropan-2-yl)carbamate] | 69 nM
CCNC(=O)C(=O)[C@H](CCC(C)(F)F)NC(=O)[C@@H]1CC2(CCCCC2)CN1C(=O)[C@@H](NC(=O)OC)C(C)(C)C [Example 8, Methyl ((S)-1-((S)-3-(((S)-1-(ethylamino)-6,6-difluoro-1,2-dioxoheptan-3-yl)carbamoyl)-2-azaspiro[4.5]decan-2-yl)-3,3-dimethyl-1-oxobutan-2-yl)carbamate] | 18 nM
